Test results as given in US9556158B2, “Fungicidal 3-[(pyridin-2-ylmethoxyimino)(phenyl)methyl]-2-substituted-1,2,4-oxadiazol-5(2H)-one derivatives” (BAYER INTELLECTUAL PROPERTY GMBH, priority 2011, dated 2017).
Where two headings read alike, the source gives them in different places.

Tests used:
Phytophthora infestans = experiment: whole plant or invertebrate; assay type: in vivo; conditions: in Solanum lycopersicum, 120 h, read-out: % efficacy
[1] = HPLC on reversed phase columns, pH 2.7, 0.1% formic acid in water / acetonitrile gradient; for chromatographic logP: pH 2.7, LogP
[2] = compounds of formula (V), Table 2

Row | SMILES | pest or weed control at 500 ppm (Phytophthora infestans) [%] | chromatographic logP [1] | LogP [1] | chromatographic logP [1, 2]
1 | CCCCC(=O)Nc1cccc(CON=C(c2ccccc2)c2nc(=O)on2C)n1 [Example 12] | 100 | 2.9 | – | –
2 | Cc1cccc(C(=NOCc2cccc(NC(=O)OC(C)(C)C)n2)c2nc(=O)on2C)c1 [Example 21] | 100 | 3.65 | – | –
3 | Cn1oc(=O)nc1C(=NOCc1cccc(N)n1)c1cccc(F)c1 [Example 23] | 98 | 0.99 | – | –
4 | Cn1oc(=O)nc1C(=NOCc1cccc(NC(=O)OC2CCCCC2)n1)c1ccccc1 [Example 26] | 99 | 3.81 | – | –
5 | COc1cccc(C(=NOCc2cccc(NC(=O)OC3CCCCC3)n2)c2nc(=O)on2C)c1 [Example 28] | 78 | 3.85 | – | –
6 | Cc1cccc(C(=NOCc2cccc(NC(=O)OC3CCCCC3)n2)c2nc(=O)on2C)c1 [Example 30] | 78 | 4.11 | – | –
7 | Cc1cccc(C(=NOCc2cccc(N)n2)c2nc(=O)on2C)c1 [Example 31] | 93 | 1.17 | – | –
8 | Cn1oc(=O)nc1C(=NOCc1cccc(NC(=O)OC2CCCCC2)n1)c1cccc(F)c1 [Example 33] | 100 | 3.92 | – | –
9 | CCCCSC(=S)Nc1cccc(CON=C(c2ccccc2)c2nc(=O)on2C)n1 [Example 38] | 93 | 4.15 | – | –
10 | Cn1oc(=O)nc1C(=NOCc1cccc(NC(=O)SC(C)(C)C)n1)c1ccccc1 [Example 39] | 99 | 3.73 | – | –
11 | CCn1oc(=O)nc1/C(=N\OCc1cccc(NC(=O)OC(C)(C)C)n1)c1ccccc1 [Example 40, tert-butyl {6-[({[(Z)-(2-ethyl-5-oxo-2,5-dihydro-1,2,4-oxadiazol-3-yl)(phenyl)methylene]amino}oxy)methyl]pyridin-2-yl}carbamate] | 73 | 3.58 | – | –
12 | CCCCOC(=S)Nc1cccc(CON=C(c2ccccc2)c2nc(=O)on2C)n1 [Example 43] | 99 | 3.89 | – | –
13 | COc1ccc(CC(=O)Nc2cccc(CON=C(c3cccc(OC)c3)c3nc(=O)o[nH]3)n2)cc1 [Example 48] | 100 | 2.98 | – | –
14 | CCCCCCC(=O)Nc1cccc(CON=C(c2cccc(OC)c2)c2nc(=O)o[nH]2)n1 [Example 50] | 100 | 3.71 | – | –
15 | CCCCCOC(=O)Nc1cccc(CON=C(c2cccc(C)c2)c2nc(=O)on2C)n1 [Example 56] | 83 | 4.11 | – | –
16 | Cc1cccc(C(=NOCc2cccc(NC(=O)C(C)(C)C)n2)c2nc(=O)on2C)c1 [Example 57] | 75 | 3.17 | – | –
17 | CCCCOC(=O)Nc1cccc(CON=C(c2cccc(C)c2)c2nc(=O)on2C)n1 [Example 58] | 75 | 3.69 | – | –
18 | CCCCCC(=O)Nc1cccc(CON=C(c2cccc(C)c2)c2nc(=O)on2C)n1 [Example 59] | 90 | 3.58 | – | –
19 | CCCCC(=O)Nc1cccc(CON=C(c2cccc(C)c2)c2nc(=O)on2C)n1 [Example 60] | 89 | 3.19 | – | –

Row | SMILES | pest or weed control at 500 ppm (Phytophthora infestans) [%] | chromatographic logP [1] | LogP [1] | chromatographic logP [1, 2]
20 | COc1cccc(C(=O)Nc2cccc(CON=C(c3cccc(OC)c3)c3nc(=O)o[nH]3)n2)c1 [Example 63] | 80 | 3.06 | – | –
21 | COc1cccc(C(=O)Nc2cccc(CON=C(c3cccc(F)c3)c3nc(=O)o[nH]3)n2)c1 [Example 64] | 85 | 3.13 | – | –
22 | CC#CCOC(=O)Nc1cccc(CON=C(c2cccc(F)c2)c2nc(=O)o[nH]2)n1 [Example 65] | 100 | 2.94 | – | –
23 | CCCCOC(=O)Nc1cccc(CON=C(c2cccc(OC)c2)c2nc(=O)o[nH]2)n1 [Example 66] | 70 | 3.42 | – | –
24 | CCCCCC(=O)Nc1cccc(CON=C(c2cccc(F)c2)c2nc(=O)o[nH]2)n1 [Example 68] | 98 | 3.37 | – | –
25 | CCCCCOC(=O)Nc1cccc(CON=C(c2cccc(F)c2)c2nc(=O)o[nH]2)n1 [Example 69] | 100 | 3.89 | – | –
26 | CCCCCCC(=O)Nc1cccc(CON=C(c2cccc(F)c2)c2nc(=O)o[nH]2)n1 [Example 70] | 80 | 3.76 | – | –
27 | CCCCOC(=O)Nc1cccc(CON=C(c2cccc(F)c2)c2nc(=O)o[nH]2)n1 [Example 71] | 95 | 3.48 | – | –
28 | CCCCC(=O)Nc1cccc(CON=C(c2cccc(F)c2)c2nc(=O)o[nH]2)n1 [Example 72] | 85 | 2.98 | – | –
29 | COc1ccc(CC(=O)Nc2cccc(CON=C(c3cccc(F)c3)c3nc(=O)o[nH]3)n2)cc1 [Example 73] | 95 | 3 | – | –
30 | O=C(Cc1cccc(F)c1)Nc1cccc(CON=C(c2cccc(F)c2)c2nc(=O)o[nH]2)n1 [Example 74] | 85 | 3.13 | – | –
31 | Cc1cccc(C(=O)Nc2cccc(CON=C(c3cccc(F)c3)c3nc(=O)o[nH]3)n2)c1 [Example 75] | 98 | 3.35 | – | –
32 | O=C(Cc1ccccc1)Nc1cccc(CON=C(c2cccc(F)c2)c2nc(=O)o[nH]2)n1 [Example 76] | 90 | 3.04 | – | –
33 | CCCCCCC(=O)Nc1cccc(CON=C(c2cccc(C)c2)c2nc(=O)on2C)n1 [Example 78] | 70 | 3.96 | – | –
34 | Cn1oc(=O)nc1C(=NOCc1cccc(NC(=O)OCC2CC2)n1)c1ccccc1 [Example 180] | – | 3.04 | – | –
35 | Cn1oc(=O)nc1C(=NOCc1cccc(NC(=O)OCCCC2CC2)n1)c1ccccc1 [Example 181] | – | 3.76 | – | –
36 | C/C=C/CCCOC(=O)Nc1cccc(CON=C(c2ccccc2)c2nc(=O)on2C)n1 [Example 183] | – | 3.81 | – | –
37 | Cn1oc(=O)nc1C(=NOCc1cccc(NC(=O)OCc2ccccc2Cl)n1)c1ccccc1 [Example 184] | – | 3.76 | – | –
38 | COc1ccc(OC(=O)Nc2cccc(CON=C(c3ccccc3)c3nc(=O)on3C)n2)cc1 [Example 185] | – | 3.15 | – | –

Row | SMILES | pest or weed control at 500 ppm (Phytophthora infestans) [%] | chromatographic logP [1] | LogP [1] | chromatographic logP [1, 2]
39 | Cn1oc(=O)nc1C(=NOCc1cccc(NC(=O)OC(C)(C)C)n1)c1cccc(F)c1F [Example 187] | – | – | 3.33 | –
40 | CCCCOC(=O)Nc1cccc(CON=C(c2cccc(F)c2F)c2nc(=O)on2C)n1 [Example 188] | – | 3.46 | – | –
41 | C#CCCOC(=O)Nc1cccc(CON=C(c2cccc(F)c2F)c2nc(=O)on2C)n1 [Example 189] | – | 2.78 | – | –
42 | Cn1oc(=O)nc1C(=NOCc1cccc(NC(=O)OCCc2ccccc2)n1)c1cccc(F)c1F [Example 190] | – | 3.62 | – | –
43 | COc1ccc(CC(=O)Nc2cccc(CON=C(c3cccc(F)c3F)c3nc(=O)on3C)n2)cc1 [Example 191] | – | 2.98 | – | –
44 | Cn1oc(=O)nc1C(=NOCc1cccc(N)n1)c1cccc(F)c1F [Example 192] | – | 0.96 | – | –
45 | Cn1oc(=O)nc1/C(=N\OCc1cccc(Br)n1)c1ccccc1 [Example 193, 3-[(Z)-{[(6-bromopyridin-2-yl)methoxy]imino}(phenyl)methyl]-2-methyl-1,2,4-oxadiazol-5(2H)-one] | – | 2.75 | – | –
46 | C#CCCOC(=O)Nc1cccc(CO/N=C(\C(=N)N(C)O)c2ccccc2)n1 [Example V-01, but-3-yn-1-yl (6-{[({(1Z)-2-[hydroxy(methyl)amino]-2-imino-1-phenylethylidene}amino)oxy]methyl}pyridin-2-yl)carbamate] | – | – | – | 1.63
47 | CN(O)C(=N)/C(=N\OCc1cccc(NC(=O)OC(C)(C)C)n1)c1ccccc1 [Example V-02, tert-butyl (6-{[({(1Z)-2-[hydroxy(methyl)amino]-2-imino-1-phenylethylidene}amino)oxy]methyl}pyridin-2-yl)carbamate] | – | – | – | 1.81
48 | CN(O)C(=N)C(=NOCc1cccc(N)n1)c1ccccc1 [Example V-03] | – | – | – | 0.22
49 | Cc1cccc(C(=NOCc2cccc(NC(=O)OC(C)(C)C)n2)C(=N)N(C)O)c1 [Example V-04] | – | – | – | 1.93
50 | CN(O)C(=N)/C(=N\OCc1cccc(NC(=O)OC(C)(C)C)n1)c1cccc(F)c1 [Example V-05, tert-butyl (6-{[({(1Z)-2-[hydroxy(methyl)amino]-2-imino-1-(3-fluorophenyl)ethylidene}amino)oxy]methyl}pyridin-2-yl)carbamate] | – | – | – | 1.86
51 | COc1cccc(C(=NOCc2cccc(NC(=O)OC(C)(C)C)n2)C(=N)N(C)O)c1 [Example V-06] | – | – | – | 1.86
52 | COCCN(O)C(=N)C(=NOCc1cccc(NC(=O)OC(C)(C)C)n1)c1ccccc1 [Example V-07] | – | – | – | 1.93
53 | CCN(O)C(=N)/C(=N\OCc1cccc(NC(=O)OC(C)(C)C)n1)c1ccccc1 [Example V-08, tert-butyl (6-{[({(1Z)-2-[hydroxy(ethyl)amino]-2-imino-1-(phenyl)ethylidene}amino)oxy]methyl}pyridin-2-yl)carbamate] | – | – | – | 1.9
54 | CC(C)N(O)C(=N)C(=NOCc1cccc(NC(=O)OC(C)(C)C)n1)c1ccccc1 [Example V-09] | – | – | – | 2.05
55 | CN(O)C(=N)C(=NOCc1cccc(NC(=O)OC(C)(C)C)n1)c1cccc(F)c1F [Example V-10] | – | – | – | 1.9
56 | CN(O)C(=N)C(=NOCc1cccc(NC(=O)OC(C)(C)C)n1)c1ccccc1C(F)F [Example V-11] | – | – | – | 2.43
57 | CN(O)C(=N)/C(=N\OCc1cccc(Br)n1)c1ccccc1 [Example V-12, (2Z)-2-{[(6-bromopyridin-2-yl)methoxy]imino}-N-hydroxy-N-methyl-2-phenylethanimidamide] | – | – | – | 1.39
